Laboratory results published in patent US6433009B1, “Sulfonyl urea derivatives and their use in the control of interleukin-1 activity” (Pfizer Inc, priority 1997, dated 2002).

SMILES | melting point
CC(=O)c1cccc(S(=O)(=O)NC(=O)Nc2c(C(C)C)cccc2C(C)C)c1 [Example 56, 1-(3-Acetyl-benzenesulfonyl)-3-(2,6-diisopropyl-phenyl)-urea] | 151.6 to 153.5 °C
O=C(Nc1c2c(cc3c1CCC3)CCC2)NS(=O)(=O)c1ccc2[nH]cnc2c1 [Example 127, 1-(1H-Benzoimidazole-5-sulfonyl)-3-(1,2,3,5,6,7-hexahydro-s-indacen-4-yl)-urea] | 239 °C (dec.)
